# Data as given in patent publication US7598279B2, “Neurotherapeutic azole compounds” (SK Holdings Co., Ltd., priority 2005, dated 2009).
# Key:
# [1] = test system: mice; assay: Forced swimming test (FST); format: in vivo; settings: 30 min after dosing
# Description: The “Forced swimming test (FST)” for antidepressant activity was also carried out. The procedure employed in the FST for antidepressant is as follows. The compounds to be tested were dissolved in 30% PEG400 and administered ip and po into animals. 30 min later, the immobility time during post 4 minutes of 6 minutes experiment time was measured.
# [2] = test system: mice; assay: Light-Dark Box (LDB) test; format: in vivo
# Description: Light-Dark Box (LDB) test, one of the unconditioned conflict tests, was used to investigate anxiolytic activity for several drugs such as Diazepam, Buspirone, etc (Allikmets et al, 1996; Belzung and Griebel, 2001; Cutler and Aitken, 1991; Leyre et al, 2004). In the present study, anxiolytic effect of azole compounds containing carbamoyl group represented by general structural formula (IX) was investigated on the LDB test in mice.
# The animals were treated with compound 30 min prior to testing. The light-dark box consisted of a plexiglas apparatus measuring 45 cm×27 cm×27 cm (L×W×H), and was partitioned into two compartments, one fully opaque (dark compartment made of black plexiglas: 18 cm of total length of apparatus), while the second was lit from the compartment ceiling by a 100 W bulb. A small opening (7×7 cm) in the partition wall allowed free passage between the light and dark compartments.
# Animals were placed at the lit compartment first, and the latency for escape into dark was checked and tested in the LDB for 5 min after the first entering into dark box. The animal, which the latency was over 2 min, was excluded from the test. Total time spent in the light compartment was counted. Movement of animal was checked through the TV-CCD camera by an experienced observer blind to the conditions of the experiment. A mouse whose four paws were in the new box was considered as having changed box.
# [3] = test system: mice; assay: Pentylenetetrazol (PTZ)-induced clonic seizure test; format: in vivo; settings: for ED50 / responders at 30 mg/kg: Mus musculus; for ED50: sc, read-out: Mice PTZ ED50 (mpk/peak time); for responders at 30 mg/kg: read-out: Mice PTZ Protection % (mpk/peak time)
# Description: The “Pentylenetetrazol (PTZ)” test for anticonvulsant and antianxiety activity was also carried out.
# The procedure employed in the PTZ test is as follows. The compounds to be tested were dissolved in 30% PEG400 and administered ip and po into animals. After the designated number of hours, each animal was injected subcutaneously with 100 mg/kg of PTZ (CD97 dose) and observed for up to 30 minutes for the presence or absence of clonic spasms over 5 seconds. Median efficacy dose (ED50) levels were determined using three different dose levels with 8 mice in each group.
# [4] = test system: mice; assay: Maximal ElectroShock (MES)-induced tonic seizure test; format: in vivo; settings: for ED50 / responders at 30 mg/kg: Mus musculus; for ED50: read-out: Mice MES ED50 (mpk/peak time); for responders at 30 mg/kg: read-out: Mice MES Protection % (mpk/peak time)
# Description: The “Maximal ElectroShock (MES)” test is a well-established pharmacological screening method for anticonvulsants against tonic-clonic seizures. The procedure employed in the MES test for anticonvulsants is as follows. The compounds to be tested were dissolved in 30% PEG400 and administered ip and po into animals. After the designated number of hours, maximal electroshock (50 mA, 60 Hz, 0.2 sec) was applied into animals via corneal electrodes using IITC Life Science model 11A Shocker. […] Median efficacy dose (ED50) levels were determined using three different dose levels with at least 8 mice in each group.
# [5] = test system: TBPS site of GABA-A receptor; assay: GABA-A receptor (TBPS site) binding assay, [35S]TBPS; settings: rat brain membranes, 2 nM [35S]TBPS
# Description: Compounds of the inventions were tested for specific binding to TBPS (t-butyl bicyclophosphorothionate) site, an allosteric modulator site of GABA-A receptor as modified from G. Maksay and M. Simonyi, Eur. J. Pharmacol. 1985, 117(2), 275. and Gee, K. W. et al., J. Pharm. Exp. Ther. 1988, 246, 803.
# This binding assay was performed using [35S] TBPS as radioligand in washed crude membrane homogenate from rat brains. Membrane preparations were carried out according to procedure described below. Sprague-Dawley (SD) rat weighting 230 g were killed by decapitation and their whole brains were rapidly removed and its cerebellums were excluded. The dissected brains were homogenized for 30 sec in 10 volumes (W/V) of ice-cold 0.32 M Sucrose and 50 mM Tris-citrate buffer pH 7.4 using glass homogenate. The homogenate was centrifuged at 2,000×g for 5 min at 4° C. And the supernatant re-centrifuged at 50,000×g for 20 min at 4° C. The supernatant was discarded and the resulting pellets were resuspended in 10 volumes (W/V) of ice-cold 50 mM Tris-citrate buffer pH 7.4. And then the suspended pellet was centrifuged at 50,000×g for 20 min at 4° C. The resulting pellets were suspended again in 32 volumes (W/V) of ice-cold 50 mM Tris-citrate buffer pH 7.4 with 0.05% Triton X-100 and then incubated in 37° C. for 60 min using a water bath. The incubated suspension was centrifuged at 50,000×g for 20 min at 4° C. Resuspending and centrifugation step of the remained pellets were repeated twice at the same manner and final pellets were resuspended in 10 volumes (W/V) of ice-cold 50 mM Tris-citrate buffer pH 7.4 to enable distribution of 2 ml aliquot in microcentrifuge tube, which were used immediately or kept at −80° C. for no more than 1 month before use.
# For TBPS site binding assay, 50 μl of the tested compound were added to 100 μg membrane protein suspended in 0.15 ml of 50 mM Tris-citrate buffer with 200 mM NaCl pH 7.4 in presence of 2 nM of [35S] TBPS. The incubation of mixtures were carried out for 1.5 hours at 25° C. and then rapidly filtered over Whatman GF/C glass fiber filters, followed by twice 4.5 ml rinses with ice-cold incubation buffer. The filters were placed in counting vials and 4 ml scintillation solution. The vials were counted in a Beckman scintillation counter. Non-specific binding was determined in parallel incubations with 100 μM picrotoxin.
# IC50 values for TBPS site binding assay was calculated using Graphpad PRISM v.3.00.
# [6] = treated 30 min prior to testing, dose not given
# [7] = treated 30 min prior to testing
SMILES,Mice FST Reduction of immobility % [1],"Mice LDB % Duration in the light box [2, 6]",ED50 ([4]; 0.5 h) [mg/kg],Mice FST Reduction of immobility % ([1]; dose not given) [%],TBPS Inhibition % (At 100 μM) [5] [%],also measured
"NC(=O)OC(Cn1ncnn1)c1ccccc1Cl (centres unmarked) [Example 2, Carbamic acid 1-(2-chloro-phenyl)-2-tetrazol-2-yl-ethyl ester]",N.S,180%^,8.6,,,ED50 ([3]; 0.5 h): 5.9 mg/kg
"NC(=O)O[C@@H](Cn1nccn1)c1ccccc1Cl [Example 33, Carbamic acid (R)-1-(2-chloro-phenyl)-2-[1,2,3]triazol-2-yl-ethyl ester]",,,9.72,26.2,,"Mice LDB % Duration in the light box [2, 7]: N.S; ED50 ([3]; 0.5 h): 8.18 mg/kg"
"CC(C(OC(N)=O)c1ccc(Cl)c(Cl)c1)n1ncnn1 (centres unmarked) [Example 80, Carbamic acid 1-(3,4-dichloro-phenyl)-2-tetrazol-2-yl-propyl ester]",,,,50.6,64.8,responders at 30 mg/kg ([4]; 4 h): 33.3%
"NC(=O)O[C@@H](Cn1nccn1)c1ccc(Cl)cc1 [Example 86, Carbamic acid (R)-1-(4-chloro-phenyl)-2-[1,2,3]triazol-2-yl-ethyl ester]",N.S,,21.4,,18.9,
"NC(=O)O[C@@H](Cn1ncnn1)c1ccc(Cl)c(Cl)c1 [Example 88, Carbamic acid (R)-1-(3,4-dichloro-phenyl)-2-tetrazol-2-yl-ethyl ester]",,,19.1,88.4,52.8,
"NC(=O)OC(Cn1ncnn1)c1cc(Cl)ccc1Cl (centres unmarked) [Example 89, Carbamic acid 1-(2,5-dichloro-phenyl)-2-tetrazol-2-yl-ethyl ester]",N.S,167.4% ^,,,27.6,ED50 ([3]; 1 h): 14.5 mg/kg; ED50 ([4]; 1 h): 6.15 mg/kg
"NC(=O)OC(Cn1ncnn1)c1c(Cl)cccc1Cl (centres unmarked) [Example 98, Carbamic acid 1-(2,6-dichloro-phenyl)-2-tetrazol-2-yl-ethyl ester]",,,6.03,31.5,29.9,ED50 ([3]; 0.5 h): 11.6 mg/kg
"NC(=O)OC(Cn1nccn1)c1c(Cl)cccc1Cl (centres unmarked) [Example 99, Carbamic acid 1-(2,6-dichloro-phenyl)-2-[1,2,3]triazol-2-yl-ethyl ester]",N.S,,11.6,,23.6,responders at 30 mg/kg ([3]; 2 h): 100%
"NC(=O)O[C@@H](Cn1ncnn1)c1ccc(Cl)cc1Cl [Example 103, Carbamic acid (R)-1-(2,4-dichloro-phenyl)-2-tetrazol-2-yl-ethyl ester]",N.S,277.8% ^,,,,IC50 [5]: 13.4 µM; ED50 ([3]; 1 h): 5.14 mg/kg; ED50 ([4]; 1 h): 19.2 mg/kg
"NC(=O)O[C@H](Cn1ncnn1)c1ccc(Cl)cc1Cl [Example 113, Carbamic acid (S)-1-(2,4-dichloro-phenyl)-2-tetrazol-2-yl-ethyl ester]",N.S,−172% ^,,,,ED50 ([3]; 1 h): 20.7 mg/kg; ED50 ([4]; 1 h): 13 mg/kg
"NC(=O)O[C@H](Cn1nccn1)c1ccc(Cl)cc1Cl [Example 114, Carbamic acid (S)-1-(2,4-dichloro-phenyl)-2-[1,2,3]triazol-2-yl-ethyl ester]",N.S,172.5% ^,,,,IC50 [5]: 107 µM; ED50 ([3]; 1 h): 16.9 mg/kg; ED50 ([4]; 1 h): 33.9 mg/kg
"NC(=O)O[C@@H](Cn1nccn1)c1ccc(Cl)cc1Cl [Example 115, Carbamic acid (R)-1-(2,4-dichloro-phenyl)-2-[1,2,3]triazol-2-yl-ethyl ester]",N.S,,,,,"IC50 [5]: 4.3 µM; Mice LDB % Duration in the light box ([2]; 10 mpk, ip): 245%^; ED50 ([3]; 1 h): 8.43 mg/kg; ED50 ([4]; 0.25 h): 12.7 mg/kg"
"NC(=O)O[C@@H](Cn1ncnn1)c1c(Cl)cccc1Cl [Example 126, Carbamic acid (R)-1-(2,6-dichloro-phenyl)-2-tetrazol-2-yl-ethyl ester]",,241.5% ^,2.7,72.0,0.3,ED50 ([3]; 0.5 h): 5.06 mg/kg
"NC(=O)NC(=O)OC(Cn1ncnn1)c1ccccc1Cl (centres unmarked) [Example 129, O-1-(2-Chloro-phenyl)-2-tetrazol-2-yl ethyl allophanate]",N.S,,,,5.6,"Mice PTZ Protection % (mpk/peak time) ([3]; 3 mice, 30 mpk, 1 hr): 100% (30/1 hr); Mice MES ED50 (mpk/peak time) ([4]; mice, peak time 0.5 hr): 13.7/0.5 hr mpk"
"NC(=O)O[C@@H](Cn1ccnn1)c1ccc(Cl)cc1Cl [Example 130, Carbamic acid (R)-1-(2,4-dichloro-phenyl)-2-[1,2,3]triazol-1-yl-ethyl ester]",,,24,8.8,42.8,"Mice LDB % Duration in the light box [2, 7]: N.S; ED50 ([3]; 0.5 h): 8 mg/kg"
"O=C(OC(Cn1ncnn1)c1ccccc1Cl)N1CCC(Cc2ccccc2)CC1 (centres unmarked) [Example 138, 4-Benzyl-piperidine-1-carboxylic acid 1-(2-chloro-phenyl)-2-tetrazol-2-yl-ethyl ester]",,,,35.9,49.6,responders at 30 mg/kg ([3]; 4 h): 66.7%; responders at 30 mg/kg ([4]; 2 h): 100%
"NC(=O)OC(COc1ccc(Cl)c(Cl)c1)Cn1ncnn1 (centres unmarked) [Example 148, Carbamic acid 2-(3,4-dichloro-phenoxy)-1-tetrazol-2-ylmethyl-ethyl ester]",N.S,,,,76.1,responders at 30 mg/kg ([3]; 4 h): 66.7%; responders at 30 mg/kg ([4]; 0.5 h): 100%
